Test system: biofilm within an infected cut
Test: Chlorine dioxide disrupts biofilm within an infected cut (Example 4)
Format: in vivo
Details: retreated every 12 hours, after 36 hours
Procedure: FIGS. 3A, 3B, 3C, and 3D are photographs that show the progression of an infected cut at 0 hours, 12 hours, 24 hours, and 36 hours, respectively.
FIGS. 4A, 4B, 4C, and 4D are photographs that show the progression of an infected cut at 0 hours, 12 hours, 24 hours, and 36 hours, respectively.
Chlorine Dioxide and CURAD Antibacterial Bandages (benzalkonium chloride) are used in this example. The first of two infected cuts is exposed to 100 ppm of chlorine dioxide for 1 minute before the benzalkonium chloride bandage is applied. The second infected cut is not exposed to chlorine dioxide before the benzalkonium chloride bandage is applied. Both cuts are retreated every 12 hours. […] FIG. 4 illustrates that after 36 hours the second cut's infection, not treated with chlorine dioxide, actually increases.

Row | Molecule | progress of the cut's infection (FIG. 4) (infected cut with benzalkonium chloride bandage only, no chlorine dioxide) | progress of the cut's infection (FIG. 3) (infected cut exposed to 100 ppm chlorine dioxide for 1 minute before benzalkonium chloride bandage)
1 | benzalkonium chloride | no apparent effect | 
2 | [O][Cl+][O-] [chlorine dioxide] |  | significantly reduced
